Data reported in patent publication US20250375401A1, “PHARMACEUTICAL COMPOSITION CONTAINING DEMETHYLZEYLASTERAL FOR PREVENTION OR TREATMENT OF DISEASES CAUSED BY MUSCLE LOSS” (SEOUL NATIONAL UNIVERSITY R&DB FOUNDATION, priority 2022, published 2025).

Columns and labels:
[1] = tested on: myoblast cell line C2C12; assay: Myocyte differentiation in dexamethasone-induced cell model (total MHC immunofluorescence and DAPI staining); type: cell-based, mouse; conditions: C2C12 myotubes, 0.5 or 1 μM demethylzeylasteral with 100 μM dexamethasone
Experimental: dexamethasone-induced cell model, the following experiments were performed. Specifically, myoblast cell line C2C12 from mouse were seeded in 6 cm dishes and incubated for 72 hours. Then, the media were replaced to differentiation media to differentiate myoblasts into myotubes for 48 hours. After myotubes were formed, they were teated with 100 μM dexamethasone and 0.5, or 1 μM demethylzeylasteral for 72 hours while replacing the differentiation media every 24 hours. The differentiation media were suctioned off, and the dishes in which the cells were incubated were washed three times with PBS. Then, the cells were fixed with 4% formaldehyde, permeabilized with PBS containing 0.1% Triton-X 100 for 10 minutes, and blocked with PBS containing 3% bovine serum albumin for 1 hour. The cells were treated with total MHC antibodies, a biomarker for myocyte differentiation, followed by Alexa 488-conjugated secondary antibodies, and teated with DAPI for staining nuclei. The ratio of MHC+ nuclei to the total number of nuclei was calculated and plotted as a differentiation index, and the total number of nuclei stained with DAPI was also counted and plotted.

[2] = tested on: myoblast cell line C2C12; assay: Western blot of total MHC and MuRF-1 in dexamethasone-induced cell model; type: cell-based, mouse; conditions: C2C12 myotubes, 0.5 or 1 μM demethylzeylasteral with 100 μM dexamethasone, 48 hours, western blot (FIG. 5)
Experimental: Specifically, myoblast cell line C2C12 from mouse were seeded in 6 cm dishes and incubated for 72 hours.

`C[C@@]1(C(=O)O)CC[C@]2(C)CC[C@]3(C)C4=CC(=O)c5c(cc(O)c(O)c5C=O)[C@]4(C)CC[C@@]3(C)[C@@H]2C1` [demethylzeylasteral, (2R,4aS,6aR,6aS,14aS,14bR)-9-formyl-10,11-dihydroxy-2,4a,6a,6a,14a-pentamethyl-8-oxo-1,3,4,5,6,13,14,14b-octahydropicene-2-carboxylic acid] was tested, and the “myocyte differentiation index (total number of MHC+ nuclei divided by total number of nuclei)” value ([1]; 72 hours (FIG. 3)) was “significantly increased and restored”, the “number of nuclei (DAPI staining)” value ([1]; 72 hours (FIG. 4)) was “significantly increased” and the “expression of MuRF-1 (biomarker for muscle degradation)” value [2] was “significantly reduced expression”. For the same compound, the “expression of total MHC (biomarker for myocyte differentiation in late stage)” value [2] was “significantly increased expression”.
